Measurements as given in ChEMBL document CHEMBL3525955, “Glucuronidation of the red clover isoflavone irilone by liver microsomes from different species and human UDP-glucuronosyltransferases” (Drug Metab Dispos, 2011).

Experiments:
[1] = Intrinsic clearance in pig liver microsomes incubated for 5 mins prior to UDPGA addition measured after 90 mins; format: ADME, Sus scrofa; conditions: 1.5 h
[2] = Drug metabolism in pig liver microsomes assessed as IRI-O-5-monoglucuronide formation incubated for 5 mins prior to UDPGA addition measured after 90 mins by Eadie-Hoftsee plot analysis; format: ADME, Sus scrofa; conditions: 1.5 h
[3] = biological target: T1, UDP-glucuronosyltransferase 1A1 (Homo sapiens, UniProt P22309); experiment: Substrate inhibition of human recombinant UGT1A1 assessed as IRI-O-5-monoglucuronide formation incubated for 5 mins prior to UDPGA addition measured after 90 mins by Eadie-Hoftsee plot analysis; format: ADME
T1 sequence (P22309 whole entry): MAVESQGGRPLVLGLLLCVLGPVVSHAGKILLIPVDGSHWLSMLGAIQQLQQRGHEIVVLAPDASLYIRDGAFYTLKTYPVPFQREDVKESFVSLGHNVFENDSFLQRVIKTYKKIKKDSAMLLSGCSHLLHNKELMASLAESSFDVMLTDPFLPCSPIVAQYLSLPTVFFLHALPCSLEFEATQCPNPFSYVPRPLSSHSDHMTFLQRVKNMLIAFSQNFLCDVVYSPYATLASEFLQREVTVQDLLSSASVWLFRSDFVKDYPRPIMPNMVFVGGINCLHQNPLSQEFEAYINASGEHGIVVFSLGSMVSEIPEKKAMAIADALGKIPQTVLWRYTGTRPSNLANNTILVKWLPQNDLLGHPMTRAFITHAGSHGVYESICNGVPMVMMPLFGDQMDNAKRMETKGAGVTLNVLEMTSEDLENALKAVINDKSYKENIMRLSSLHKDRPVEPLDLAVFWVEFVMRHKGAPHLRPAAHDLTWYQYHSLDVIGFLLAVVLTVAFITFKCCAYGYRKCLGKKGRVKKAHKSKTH

[4] = biological target: T2, UDP-glucuronosyltransferase 1A7 (Homo sapiens, UniProt Q9HAW7); experiment: Substrate inhibition of human recombinant UGT1A7 assessed as IRI-O-5-monoglucuronide formation incubated for 5 mins prior to UDPGA addition measured after 90 mins by Eadie-Hoftsee plot analysis; format: ADME
T2 sequence (Q9HAW7 whole entry): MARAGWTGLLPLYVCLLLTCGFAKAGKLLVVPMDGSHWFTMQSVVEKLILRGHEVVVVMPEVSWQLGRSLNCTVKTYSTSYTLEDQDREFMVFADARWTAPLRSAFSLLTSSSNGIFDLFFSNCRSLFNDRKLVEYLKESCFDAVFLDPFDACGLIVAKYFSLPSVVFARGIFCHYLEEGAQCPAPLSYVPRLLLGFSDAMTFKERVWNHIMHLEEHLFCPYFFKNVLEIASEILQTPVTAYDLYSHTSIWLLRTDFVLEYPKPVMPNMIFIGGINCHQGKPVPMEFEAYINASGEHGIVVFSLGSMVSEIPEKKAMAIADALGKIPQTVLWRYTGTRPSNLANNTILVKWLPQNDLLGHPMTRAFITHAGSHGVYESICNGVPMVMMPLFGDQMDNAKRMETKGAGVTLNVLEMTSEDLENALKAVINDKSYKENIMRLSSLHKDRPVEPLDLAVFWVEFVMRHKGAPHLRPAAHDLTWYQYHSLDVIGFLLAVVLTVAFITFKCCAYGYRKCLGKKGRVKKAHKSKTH

Liver microsome [5] = experiment: Drug metabolism in human liver microsomes assessed as substrate inhibition of IRI-O-5-monoglucuronide formation incubated for 5 mins prior to UDPGA addition measured after 90 mins by Eadie-Hoftsee plot analysis; format: ADME
[6] = Drug metabolism in pig liver microsomes assessed as IRI-O-4'-monoglucuronide formation incubated for 5 mins prior to UDPGA addition measured after 90 mins by Eadie-Hoftsee plot analysis; format: ADME, Sus scrofa; conditions: 1.5 h
[7] = biological target: T1, UDP-glucuronosyltransferase 1A1; experiment: Substrate inhibition of human recombinant UGT1A1 assessed as IRI-O-4'-monoglucuronide formation incubated for 5 mins prior to UDPGA addition measured after 90 mins by Eadie-Hoftsee plot analysis; format: ADME
[8] = biological target: T3, UDP-glucuronosyltransferase 1A10 (Homo sapiens, UniProt Q9HAW8); experiment: Drug metabolism assessed as human recombinant UGT1A10-mediated irilone-O-4'-monoglucuronide formation incubated for 5 mins prior to UDPGA addition measured after 90 mins by HPLC-DAD analysis; format: ADME; conditions: recombinant enzyme, 1.5 h
T3 sequence (Q9HAW8 whole entry): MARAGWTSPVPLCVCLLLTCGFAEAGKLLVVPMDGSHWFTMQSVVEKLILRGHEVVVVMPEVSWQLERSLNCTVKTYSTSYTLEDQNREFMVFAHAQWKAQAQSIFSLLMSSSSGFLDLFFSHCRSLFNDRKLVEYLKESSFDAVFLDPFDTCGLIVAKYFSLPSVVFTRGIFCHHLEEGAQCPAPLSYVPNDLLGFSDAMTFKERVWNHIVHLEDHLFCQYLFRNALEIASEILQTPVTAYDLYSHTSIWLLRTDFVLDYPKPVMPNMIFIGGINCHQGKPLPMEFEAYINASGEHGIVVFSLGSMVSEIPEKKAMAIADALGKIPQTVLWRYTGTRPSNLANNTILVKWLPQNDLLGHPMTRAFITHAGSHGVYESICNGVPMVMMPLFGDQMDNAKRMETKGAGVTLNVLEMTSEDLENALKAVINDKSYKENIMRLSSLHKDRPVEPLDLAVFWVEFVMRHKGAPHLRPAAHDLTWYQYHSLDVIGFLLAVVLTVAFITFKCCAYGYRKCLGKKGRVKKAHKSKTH

[9] = biological target: T1, UDP-glucuronosyltransferase 1A1; experiment: Drug metabolism assessed as human recombinant UGT1A1-mediated irilone-O-5-monoglucuronide formation at 25 uM incubated for 5 mins prior to UDPGA addition measured after 90 mins by HPLC-DAD analysis; format: ADME; conditions: recombinant enzyme, 1.5 h
[10] = biological target: T2, UDP-glucuronosyltransferase 1A7; experiment: Drug metabolism assessed as human recombinant UGT1A7-mediated irilone-O-5-monoglucuronide formation at 25 uM incubated for 5 mins prior to UDPGA addition measured after 90 mins by HPLC-DAD analysis; format: ADME; conditions: recombinant enzyme, 1.5 h
[11] = biological target: T2, UDP-glucuronosyltransferase 1A7; experiment: Drug metabolism assessed as human recombinant UGT1A7-mediated irilone-O-4'-monoglucuronide formation at 25 uM incubated for 5 mins prior to UDPGA addition measured after 90 mins by HPLC-DAD analysis; format: ADME; conditions: recombinant enzyme, 1.5 h
Liver microsome [12] = experiment: Drug metabolism in human liver microsomes assessed as substrate inhibition of IRI-O-4'-monoglucuronide formation incubated for 5 mins prior to UDPGA addition measured after 90 mins by Eadie-Hoftsee plot analysis; format: ADME
Liver microsome [13] = experiment: Drug metabolism in Sprague-Dawley rat liver microsomes assessed as substrate inhibition of IRI-O-4'-monoglucuronide formation incubated for 5 mins prior to UDPGA addition measured after 90 mins by Eadie-Hoftsee plot analysis; format: ADME

- CLH [1]: 71800 µL/min/mg
- Km [2]: 16.8 µM
- Vmax [2]: 0.28 nmol/mg/min
- Ki [3]: 8.5 µM
- Ki [4]: 101 µM
- Ki (Liver microsome [5]): 96.9 µM
- Km [6]: 88.6 µM
- Vmax [6]: 4.87 nmol/mg/min
- Ki [7]: 14.1 µM
- Drug metabolism [8]: metabolite_detected
- Drug metabolism [9]: metabolite_detected
- Drug metabolism [10]: metabolite_detected
- Drug metabolism [11]: metabolite_detected
- Ki (Liver microsome [12]): 50.9 µM
- Ki (Liver microsome [13]): 44.7 µM
SMILES: O=c1c(-c2ccc(O)cc2)coc2cc3c(c(O)c12)OCO3
